# Measurements reported in patent publication US20260085073A1, “PYRAZOLYLCARBOXAMIDE COMPOUNDS AND THEIR USE IN THERAPY” (Hotspot Therapeutics, Inc., priority 2022, published 2026).
# Biological target: T1, MALT1 (Homo sapiens, UniProt Q9UDY8)
# T1 construct: Avi-tagged FL MALT-1 (Pharmaron, stored at −70° C.); Avi-tag
# T1 sequence (Q9UDY8 1-824): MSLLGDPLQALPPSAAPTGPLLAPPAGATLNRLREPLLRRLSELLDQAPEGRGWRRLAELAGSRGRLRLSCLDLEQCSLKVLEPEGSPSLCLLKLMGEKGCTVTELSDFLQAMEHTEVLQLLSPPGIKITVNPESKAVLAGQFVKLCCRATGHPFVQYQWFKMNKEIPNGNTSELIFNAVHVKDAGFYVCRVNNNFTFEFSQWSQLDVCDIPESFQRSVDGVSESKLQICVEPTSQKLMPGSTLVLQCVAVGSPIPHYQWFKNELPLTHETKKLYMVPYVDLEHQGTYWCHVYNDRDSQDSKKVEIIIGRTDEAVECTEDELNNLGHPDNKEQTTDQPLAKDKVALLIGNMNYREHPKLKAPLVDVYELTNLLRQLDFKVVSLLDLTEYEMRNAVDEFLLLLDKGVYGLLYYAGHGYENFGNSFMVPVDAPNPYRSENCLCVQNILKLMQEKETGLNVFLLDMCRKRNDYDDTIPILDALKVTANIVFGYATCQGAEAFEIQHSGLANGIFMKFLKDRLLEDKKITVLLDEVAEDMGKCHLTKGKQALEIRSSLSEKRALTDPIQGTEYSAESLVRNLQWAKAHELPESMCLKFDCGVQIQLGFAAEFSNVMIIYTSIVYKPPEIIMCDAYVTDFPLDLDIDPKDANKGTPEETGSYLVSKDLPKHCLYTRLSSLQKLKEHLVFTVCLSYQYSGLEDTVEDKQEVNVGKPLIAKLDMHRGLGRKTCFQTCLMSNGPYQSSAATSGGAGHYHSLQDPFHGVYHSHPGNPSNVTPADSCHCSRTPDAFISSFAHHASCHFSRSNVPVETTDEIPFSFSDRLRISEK
# Assay: MALT1 inhibition assay (MALT-1 Fluorogenic Peptide Cleavage Assay, Ac-LRSR-AMC substrate)
# Assay type: biochemical
# Settings: Avi-tagged FL MALT-1, 30 min pre-incubation, 90 min reaction at room temperature, fluorescence intensity
# Experimental: Example 71—MALT1 Inhibition Assay
# Compounds were tested for ability to bind to MALT1.
# Inhibition of MALT1 activity by the presence of small molecules was evaluated using MALT-1 Fluorogenic Peptide Cleavage Assay. The assay utilizes a quenched AMC-labelled peptide that contains the MALT-1 recognition sequence and cleavage site (LRSR). MALT-1 mediated cleavage of the peptide relieves the quenching and leads to an increase in fluorescence at excitation (342 nm) and emission (441 nm).
# The following reagents were obtained commercially and used to prepare standard reagent formulations as further described below: N-2-hydroxyethylpiperazine-N-2-ethane sulfonic acid (HEPES) (1 M, pH 7.5, stored at 4° C.), sodium citrate (stored at RT), tris(2-carboxyethyl) phosphine hydrochloride (T-CEP) (500 mM, stored at −20° C.), ethylenediaminetetraacetic acid (EDTA) (500 mM, stored at RT), dimethylsulfoxide (DMSO, stored at RT), 3-[(3-cholamidopropyl)dimethylammonio]-1-propane sulphate (CHAPS) (stored at RT), dimethylsulfoxide (DMSO), DMSO (Fisher Scientific, stored at RT), Avi-tagged FL MALT-1 (Pharmaron, stored at −70° C.), Ac-LRSR-AMC Peptide (SM Biochemicals, stored at −20° C.), and ultrapure water (MILLI-QR).
# The standard reagent formulations used in this assay were prepared and stored as follows. A 1.1 M solution of sodium citrate (161.3 g, 500 mL) was prepared and stored at room temperature. A 10% (w/v) CHAPS solution (2.0 g, 20 mL) was prepared and stored at 4° C. A 500 mM HEPES solution having pH of 6.89 was prepared from 200 mL of a 1 M HEPES solution having a pH of 7.5 using concentrated hydrochloric acid and brought to a final volume of 400 mL with MILLI-QR H2O. The substrate, 10 mM Ac-LRSR-AMC Peptide, was prepared (10 mg, 1.370 mL DMSO) and stored at −20° C.
# Compounds were plated to provide a 2% DMSO final concentration using a ProxiPlate-384 Plus F Black 384-shallow well microplate. The assay-ready plates were equilibrated to room temperature. A reaction buffer (30 mL total volume) was prepared by combining HEPES (pH 6.89, 25 mM, 1.5 mL), sodium citrate (660 mM, 18.0 mL), T-CEP (1 mM, 0.06 mL), EDTA ([…], 0.06 mL), CHAPS (0.05%, 0.15 mL), DMSO (2%, 0.6 mL), and MILLI-QR H2O (10.23 mL; 9.63 mL when backfilled to 2% DMSO) followed by thorough mixing. DMSO was added only when compound plates had not been DMSO-backfilled to 2%.
# MALT-1 was thawed and kept on ice. Peptide substrate was thawed on the bench under ambient conditions. A MALT-1 enzyme working stock was prepared from Avi-tagged FL MALT-1 (40 nM in a prepared reagent volume of 16.5 μL) and the reaction buffer (13.0 mL). MALT1 working stock (5 μL) was added to each well of the microplate. MALT-1 was pre-incubated with compounds for 30 minutes at room temperature.
# Two substrate working stocks (Km and 10×Km) were prepared. The 1×Km substrate was prepared from Ac-LRSR-AMC Peptide (50 μM in a prepared reagent volume of 35.0 μL) and the reaction buffer (6.965 mL). The 10×Km substrate was prepared from Ac-LRSR-AMC Peptide (280 μM in a prepared reagent volume of 196.0 μL) and the reaction buffer (6.804 mL). The reaction was initiated by the addition of substrate working stock (5 μL, 50 μM) to Km plates and the addition of substrate working stock (5 μL 280 μM) to 10×Km plates. The plates were covered and incubated on the bench at room temperature for 90 minutes.
# Fluorescence intensity was determined using a CLARIOstar microplate reader (BMG LABTECH) using the optimised AMC mode. Before taking readings, a 70% gain was applied on the neutral control well. Compound data were normalised to % Inhibition and used to plot sigmoidal concentration response curves to yield various parameters including IC50.
row,IC50,SMILES
1,< 500 nM,Cn1nc(-c2cccn3nccc23)c(C(F)(F)F)c1C(=O)Nc1ccnc(C(F)(F)F)c1 [Compound I-87]
2,< 500 nM,COc1ccccc1-c1nn(C)c(C(=O)Nc2ccnc(C(F)(F)F)c2)c1C(F)(F)F [Compound I-88]
3,500 to 2500 nM,Cn1nc(-c2cccc(Cl)c2Cl)c(C(F)(F)F)c1C(=O)Nc1ccnc(C(F)(F)F)c1 [Compound I-89]
4,500 to 2500 nM,Cn1nc(-c2csc3ncccc23)c(C(F)(F)F)c1C(=O)Nc1ccnc(C(F)(F)F)c1 [Compound I-90]
5,500 to 2500 nM,Cn1nc(-c2cccc3c2CCO3)c(C(F)(F)F)c1C(=O)Nc1ccnc(C(F)(F)F)c1 [Compound I-91]
6,< 500 nM,Cn1nc(-c2csc3ccccc23)c(C(F)(F)F)c1C(=O)Nc1ccnc(C(F)(F)F)c1 [Compound I-92]
7,500 to 2500 nM,Cn1nc(-c2cc(OC3COC3)ccc2Cl)c(C(F)(F)F)c1C(=O)Nc1ccnc(C(F)(F)F)c1 [Compound I-93]
8,500 to 2500 nM,Cn1nc(-c2cccc3c2COC3)c(C(F)(F)F)c1C(=O)Nc1ccnc(C(F)(F)F)c1 [Compound I-95]
9,< 500 nM,Cn1nc(-c2cccc3scnc23)c(C(F)(F)F)c1C(=O)Nc1ccnc(C(F)(F)F)c1 [Compound I-96]
10,500 to 2500 nM,Cn1nc(-c2cccc3[nH]ccc23)c(C(F)(F)F)c1C(=O)Nc1ccnc(C(F)(F)F)c1 [Compound I-97]
11,> 10000 nM,CN1Cc2c(cccc2-c2nn(C)c(C(=O)Nc3ccnc(C(F)(F)F)c3)c2C(F)(F)F)C1=O [Compound I-98]
12,< 500 nM,Cn1nc(-c2cccc3ccsc23)c(C(F)(F)F)c1C(=O)Nc1ccnc(C(F)(F)F)c1 [Compound I-99]
13,> 10000 nM,CC(=O)Nc1cc(-c2nn(C)c(C(=O)Nc3ccnc(C(F)(F)F)c3)c2C(F)(F)F)ccn1 [Compound I-100]
14,500 to 2500 nM,Cc1csc2c(-c3nn(C)c(C(=O)Nc4ccnc(C(F)(F)F)c4)c3C(F)(F)F)cccc12 [Compound I-101]
15,2500 to 10000 nM,Cn1nc(-c2cccn3nnnc23)c(C(F)(F)F)c1C(=O)Nc1ccnc(C(F)(F)F)c1 [Compound I-102]
16,2500 to 10000 nM,Cn1cc(-c2nn(C)c(C(=O)Nc3ccnc(C(F)(F)F)c3)c2C(F)(F)F)c(C2CC2)n1 [Compound I-103]
17,> 10000 nM,COc1cc(-c2nn(C)c(C(=O)Nc3ccnc(C(F)(F)F)c3)c2C(F)(F)F)c2scnc2c1 [Compound I-104]
18,500 to 2500 nM,"Cn1nc(-c2nccc3ccccc23)c(C(F)(F)F)c1C(=O)Nc1ccnc(C(F)(F)F)c1 [Compound I-105, 3-(isoquinolin-1-yl)-1-methyl-4-(trifluoromethyl)-N-(2-(trifluoromethyl)pyridin-4-yl)-1H-pyrazole-5-carboxamide]"
19,< 500 nM,Cn1nc(-c2nccc3ccoc23)c(C(F)(F)F)c1C(=O)Nc1ccnc(C(F)(F)F)c1 [Compound I-106]
20,> 10000 nM,Cn1nc(-c2nccc3ncsc23)c(C(F)(F)F)c1C(=O)Nc1ccnc(C(F)(F)F)c1 [Compound I-107]

row,IC50,SMILES
1,> 10000 nM,COCCn1cc(-c2nn(C)c(C(=O)Nc3ccnc(C(F)(F)F)c3)c2C(F)(F)F)c2ccncc21 [Compound I-108]
2,> 10000 nM,Cn1nc(-c2cccc3nnsc23)c(C(F)(F)F)c1C(=O)Nc1ccnc(C(F)(F)F)c1 [Compound I-109]
3,500 to 2500 nM,Cn1nc(-c2ccnc3c(F)cccc23)c(C(F)(F)F)c1C(=O)Nc1ccnc(C(F)(F)F)c1 [Compound I-110]
4,500 to 2500 nM,Cn1nc(-c2nccn3ccnc23)c(C(F)(F)F)c1C(=O)Nc1ccnc(C(F)(F)F)c1 [Compound I-111]
5,2500 to 10000 nM,Cn1nc(-c2cn(C)c3c(=O)[nH]ccc23)c(C(F)(F)F)c1C(=O)Nc1ccnc(C(F)(F)F)c1 [Compound I-112]
6,500 to 2500 nM,Cn1nc(-c2csc3c(=O)[nH]ccc23)c(C(F)(F)F)c1C(=O)Nc1ccnc(C(F)(F)F)c1 [Compound I-113]
7,500 to 2500 nM,Cn1nc(-c2cncc3ccn(C)c23)c(C(F)(F)F)c1C(=O)Nc1ccnc(C(F)(F)F)c1 [Compound I-114]
8,2500 to 10000 nM,Cn1nc(-c2cncc3cc[nH]c23)c(C(F)(F)F)c1C(=O)Nc1ccnc(C(F)(F)F)c1 [Compound I-115]
9,500 to 2500 nM,Cn1nc(-c2cccc3c(=O)[nH]ncc23)c(C(F)(F)F)c1C(=O)Nc1ccnc(C(F)(F)F)c1 [Compound I-116]
10,500 to 2500 nM,Cn1nc(-c2cccc3nc(N)sc23)c(C(F)(F)F)c1C(=O)Nc1ccnc(C(F)(F)F)c1 [Compound I-117]
11,2500 to 10000 nM,Cn1nc(-c2cccc3nncn23)c(C(F)(F)F)c1C(=O)Nc1ccnc(C(F)(F)F)c1 [Compound I-118]
12,2500 to 10000 nM,Cn1nc(-c2cncc3nccn23)c(C(F)(F)F)c1C(=O)Nc1ccnc(C(F)(F)F)c1 [Compound I-119]
13,< 500 nM,"Cn1nc(-c2csc3cnccc23)c(C(F)(F)F)c1C(=O)Nc1cnc(-n2nccn2)c(C(F)(F)F)c1 [Compound I-120, N-(6-(2H-1,2,3-triazol-2-yl)-5-(trifluoromethyl)pyridin-3-yl)-1-methyl-3-(thieno[2,3-c]pyridin-3-yl)-4-(trifluoromethyl)-1H-pyrazole-5-carboxamide]"
14,< 500 nM,Cn1nc(-c2cccc3ncccc23)c(C(F)(F)F)c1C(=O)Nc1cnc(-n2nccn2)c(C(F)F)c1 [Compound I-121]
15,< 500 nM,Cn1nc(-c2cccc3ncccc23)c(C(F)(F)F)c1C(=O)Nc1cnc(-n2nccn2)c(C(F)(F)F)c1 [Compound I-122]
16,> 10000 nM,Cn1nc(-c2cccc3ncn(C4CC4)c23)cc1C(=O)Nc1ccnc(C(F)(F)F)c1 [Compound I-123]
17,500 to 2500 nM,Cn1nc(-c2c[nH]c3cnccc23)c(C(F)(F)F)c1C(=O)Nc1ccnc(C(F)(F)F)c1 [Compound I-124]
18,< 500 nM,Cn1nc(-c2cccc3ncsc23)c(C(F)(F)F)c1C(=O)Nc1cnc(-n2nccn2)c(C(F)(F)F)c1 [Compound I-125]
19,< 500 nM,Cn1nc(-c2cccc3ncsc23)c(C(F)(F)F)c1C(=O)Nc1cnc(-n2nccn2)c(Cl)c1 [Compound I-126]
20,< 500 nM,Cn1nc(-c2cccc3ccoc23)c(C(F)(F)F)c1C(=O)Nc1cnc(-n2nccn2)c(C(F)(F)F)c1 [Compound I-127]
